According to patent publication US9643964B2, “3-(2-aminopyrimidin-4-yl)-5-(3-hydroxypropynyl)-1H-pyrrolo[2,3-C]pyridine derivatives as NIK inhibitors for the treatment of cancer” (Janssen Pharmaceutica NV, priority 2013, dated 2017):
pEC50, pIC50: −log10 of the molar value.

Columns and labels:
LP-1 cells = assay: Biological Assay C: antiproliferative activity on LP-1 cells (CellTiter-Glo); format: cell-based, human; conditions: Homo sapiens, LP-1, 72 h, 72 hr treatment; averaged values
Experimental: (§1) Determination of Antiproliferative Activity on LP-1, L-363 and JJN-3 Cells
(§2) All compounds tested were dissolved in DMSO and further dilutions were made in culture medium. Final DMSO concentration was 0.3% (v/v) in cell proliferation assays. Viability was assessed using CellTiter-Glo cell viability assay kit (Promega). The human LP-1, L-363 and JJN-3 cells (DSMZ) were cultured in RPMI 1640 medium supplemented with 2 mM L-glutamine, and 10% fetal calf serum (PAA). Cells were routinely kept as suspension cells at 37° C. in a humidified 5% CO2 atmosphere. Cells were passaged at a seeding density of 0.2×10^6/ml twice a week. Cells were seeded in black tissue culture treated 96-well plates (Perkin Elmer). Densities used for plating ranged from 2,000 to 6,000 cells per well in a total volume of 75 μl medium. After twenty four hours, drugs and/or solvents were added (25 μl) to a final volume of 100 μl. Following 72 hr of treatment plates were removed from the incubator and allowed to equilibrate to room temperature for approx 10 min. 100 μl CellTiter-Glo reagent was added to each well that was then covered (Perkin Elmer Topseal) and shaken on plate shaker for 10 min. Luminescence was measured on a HTS Topcount (Perkin Elmer). Within an experiment, the results for each treatment were the mean of 2 replicate wells. For initial screening purposes, compounds were tested using a 9 point dilution curve (serial 1:3 dilutions). For each experiment, controls (containing no drug) and a blank incubation (containing cells read at the time of compound addition) were run in parallel. The blank value was subtracted from all control and sample values. For each sample, the mean value for cell growth (in relative light units) was expressed as a percentage of the mean value for cell growth of the control.

L-363 cells = assay: Biological Assay C: antiproliferative activity on L-363 cells (CellTiter-Glo); format: cell-based, human; conditions: Homo sapiens, L-363, 72 h, 72 hr treatment; averaged values
Experimental: as §1, §2

JJN-3 cells = assay: Biological Assay C: antiproliferative activity on JJN-3 cells (CellTiter-Glo); format: cell-based, human; conditions: Homo sapiens, JJN-3, 72 h, 72 hr treatment; averaged values
Experimental: as §1, §2

[1] = target: T1, Recombinant Human NF-kappaB-Inducing Kinase (NIK/MAP3K14) (Homo sapiens, UniProt Q99558); assay: Biological Assay A: inhibition of recombinant human NIK/MAP3K14 activity (MBP phosphorylation, Mesoscale); format: biochemical; conditions: for pIC50: averaged over all measurements on all batches, read-out: Biochemical (MSD MBP) IC50; for inhibition at 10 µM: read-out: Biochemical (MSD MBP) Max % Inhib @ 10 μM (Average)
T1 sequence (Q99558 whole entry): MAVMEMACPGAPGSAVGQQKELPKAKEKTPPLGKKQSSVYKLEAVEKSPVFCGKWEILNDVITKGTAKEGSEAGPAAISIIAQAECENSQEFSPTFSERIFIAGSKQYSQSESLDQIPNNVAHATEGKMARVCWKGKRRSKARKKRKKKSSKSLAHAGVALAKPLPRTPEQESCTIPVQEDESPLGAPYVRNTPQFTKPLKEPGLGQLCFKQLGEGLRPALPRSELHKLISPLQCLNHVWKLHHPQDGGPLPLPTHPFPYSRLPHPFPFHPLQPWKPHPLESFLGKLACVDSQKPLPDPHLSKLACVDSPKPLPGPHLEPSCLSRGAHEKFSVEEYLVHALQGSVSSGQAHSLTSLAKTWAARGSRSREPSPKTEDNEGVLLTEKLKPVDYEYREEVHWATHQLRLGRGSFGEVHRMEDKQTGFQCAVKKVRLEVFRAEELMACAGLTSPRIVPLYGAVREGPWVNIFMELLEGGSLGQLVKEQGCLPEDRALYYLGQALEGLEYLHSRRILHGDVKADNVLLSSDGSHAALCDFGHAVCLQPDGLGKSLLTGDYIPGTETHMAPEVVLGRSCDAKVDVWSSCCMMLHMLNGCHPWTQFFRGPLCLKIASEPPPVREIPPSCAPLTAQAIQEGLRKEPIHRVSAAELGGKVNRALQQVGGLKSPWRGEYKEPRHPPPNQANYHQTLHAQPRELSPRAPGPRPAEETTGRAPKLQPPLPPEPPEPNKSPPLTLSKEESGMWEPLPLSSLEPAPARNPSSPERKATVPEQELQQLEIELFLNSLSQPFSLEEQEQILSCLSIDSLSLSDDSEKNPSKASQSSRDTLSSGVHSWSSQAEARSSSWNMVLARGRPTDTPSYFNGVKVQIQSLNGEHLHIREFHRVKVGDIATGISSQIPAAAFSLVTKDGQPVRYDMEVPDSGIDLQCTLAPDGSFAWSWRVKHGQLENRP
Experimental: Inhibition of Recombinant Human NF-kappaB-Inducing Kinase (NIK/MAP3K14) Activity
Assay buffer was 50 mM Tris pH 7.5 containing 1 mM EGTA (ethylene glycol tetraacetic acid), 1 mM DTT (dithiothreitol), 0.1 mM Na3VO4, 5 mM MgCl2, 0.01% Tween 20. Assays were carried out in 384 well Mesoscale high binding plates which had been coated with myelin basic protein (MBP) and blocked with bovine serum albumin to prevent non-specific protein binding. All compounds tested were dissolved in dimethyl sulfoxide (DMSO) and further dilutions were made in assay buffer. Final DMSO concentration was 1% (v/v) in assays. Incubations consisted of compound (1% DMSO in control and blank wells), 25 μM Adenosine-5′-triphosphate (ATP), and 10 nM NIK/MAP3K14 substituting enzyme with buffer in the blank wells. Incubations were carried out for 1 h at 25° C. and were followed by washing and sequential incubation with rabbit anti-phospho-MBP and anti-rabbit Ig Sulfotag antibody before reading bound Sulfotag on a Mesoscale Discovery. Signal obtained in the wells containing blank samples was subtracted from all other wells and IC50's were determined by fitting a sigmoidal curve to % inhibition of control versus Log10 compound concentration.

[2] = target: T1, Recombinant Human NF-kappaB-Inducing Kinase (NIK/MAP3K14); assay: Biological Assay A2: inhibition of auto-phosphorylation of recombinant human NIK/MAP3K14 (AlphaScreen); format: biochemical; conditions: for pIC50: auto-phosphorylation, averaged over all measurements on all batches, read-out: αscreen IC50; for inhibition at 10 µM: read-out: αscreen Max % Inhib @ 10 μM (Average)
Experimental: Inhibition of Auto-Phosphorylation of Recombinant Human NF-kappaB-Inducing Kinase (NIK/MAP3K14) Activity (AlphaScreen®)
NIK/MAP3K14 auto-phosphorylation activity was measured using the AlphaScreen® (αscreen) format (Perkin Elmer). All compounds tested were dissolved in dimethyl sulfoxide (DMSO) and further dilutions were made in assay buffer. Final DMSO concentration was 1% (v/v) in assays. Assay buffer was 50 mM Tris pH 7.5 containing 1 mM EGTA (ethylene glycol tetraacetic acid), 1 mM DTT (dithiothreitol), 0.1 mM Na3VO4, 5 mM MgCl2, 0.01% Tween 20. Assays were carried out in 384 well Alphaplates (Perkin Elmer). Incubations consisted of compound, 25 microM Adenosine-5′-triphosphate (ATP), and 0.2 nM NIK/MAP3K14. Incubations were initiated by addition of GST-tagged NIK/MAP3K14 enzyme, carried out for 1 h at 25° C. and terminated by addition of stop buffer containing anti-phospho-IKK Ser176/180 antibody. Protein A Acceptor and Glutathione-Donor beads were added before reading using an EnVision® Multilabel Plate Reader (Perkin Elmer). Signal obtained in the wells containing blank samples was subtracted from all other wells and IC50's were determined by fitting a sigmoidal curve to % inhibition of control versus Log10 compound concentration.

| Structure (SMILES) | pEC50 (LP-1 cells) | pEC50 (L-363 cells) | pEC50 (JJN-3 cells) | pIC50 [1] | pIC50 [2] | inhibition at 10 µM [1] | inhibition at 10 µM [2] |
| --- | --- | --- | --- | --- | --- | --- | --- |
| CC(C)n1cc(-c2ccnc(N)n2)c2cc(C#CCO)ncc21 [Compound 13] | 6.15 | 7.44 | 6.82 | 7.52 | 6.82 |  |  |
| COCCC(C)(O)C#Cc1cc2c(-c3ccnc(N)n3)cn(CC(C)(C)O)c2cn1 (stereo not drawn) [Compound 39] |  |  |  | 6.03 | 5.80 |  |  |
| CC(C)(O)Cn1cc(-c2ccnc(N)n2)c2cc(C#CC(C)(O)C3(C)COC3)ncc21 (stereo not drawn) [Compound 47] | < 5.00 | < 5.00 | < 5.00 | 5.54 | 5.04 |  |  |
| CC(C)(O)Cn1cc(-c2ccnc(N)n2)c2cc(C#CCO)ncc21 [Compound 62] | 4.74 | 6.06 | 6.01 | 6.60 | 6.17 |  |  |
| CN(C)C(=O)C(C)(O)C#Cc1cc2c(-c3ccnc(N)n3)cn(CC(C)(C)O)c2cn1 (stereo not drawn) [Compound 63] |  |  |  | 6.22 | 6.11 |  |  |
| CC(C)(O)C#Cc1cc2c(-c3nc(N)ncc3C(F)(F)F)cn(CC3CCOCC3)c2cn1 [Compound 71] | 5.59 | 6.28 | 6.26 | 7.59 | 7.21 |  |  |
| CC(C)(O)C#Cc1cc2c(-c3nc(N)ncc3C(F)(F)F)cn(CC(C)(C)O)c2cn1 [Compound 72] | 5.14 | 6.72 | 6.49 | 8.20 | 7.42 |  |  |
| CC(C)(O)C#Cc1cc2c(-c3nc(N)ncc3F)cn(CC3CCOCC3)c2cn1 [Compound 73] | 5.80 | 6.85 | 6.72 | 7.25 | 7.15 |  |  |
| CC(C)(O)C#Cc1cc2c(-c3nc(N)ncc3F)cn(C3COC3)c2cn1 [Compound 74] | 5.96 | 7.35 | 7.12 | 7.77 | 7.37 |  |  |
| COCCn1cc(-c2ccnc(N)n2)c2cc(C#CC3(O)CCN(C)CC3)ncc21 [Compound 123] |  |  |  |  |  | 23% | 27% |
| COCCn1cc(-c2ccnc(N)n2)c2cc(C#CC(C)(O)C3CNC3)ncc21 (stereo not drawn) [Compound 124] |  |  |  |  |  | 40% | 33% |
| COCCn1cc(-c2ccnc(N)n2)c2cc(C#CC3(O)CNC3)ncc21 [Compound 125] |  |  |  |  |  | 18% | 24% |
| CCN1CC(n2cc(-c3nc(N)ncc3F)c3cc(C#CC(C)(O)C4CC4)ncc32)C1 (stereo not drawn) [Compound 136] | 6.35 | 6.85 | 6.62 |  | 6.92 |  |  |
| Nc1ncc(F)c(-c2cn(C3COC3)c3cnc(C#CC(O)(CF)C4CC4)cc23)n1 (stereo not drawn) [Compound 137] | 5.70 | 6.42 | 6.26 |  | 7.28 |  |  |
| CCN1CCCC(n2cc(-c3nc(N)ncc3F)c3cc(C#CC(C)(O)C4CC4)ncc32)C1 (stereo not drawn) [Compound 138] | 6.60 | 7.10 | 7.03 |  | 6.96 |  |  |
| CCCN1CC(n2cc(-c3nc(N)ncc3F)c3cc(C#CC(C)(O)C4CC4)ncc32)C1 (stereo not drawn) [Compound 139] | 6.47 | 6.80 | 6.66 |  | 7.01 |  |  |
| CC(O)(C#Cc1cc2c(-c3nc(N)ncc3F)cn(C3CN(CC4CC4)C3)c2cn1)C1CC1 (stereo not drawn) [Compound 140] | 6.49 | 6.85 | 6.77 |  | 7.00 |  |  |
| CCN1CCC(n2cc(-c3nc(N)ncc3F)c3cc(C#CC(C)(O)C4CC4)ncc32)C1 (stereo not drawn) [Compound 141] | 6.49 | 7.25 | 7.02 |  | 7.18 |  |  |
| CC(O)(C#Cc1cc2c(-c3nc(N)ncc3F)cn(C3CN(C4CCCC4)C3)c2cn1)C1CC1 (stereo not drawn) [Compound 142] | 6.39 | 6.72 | 6.82 |  | 6.68 |  |  |
| CCOCCN1CC(n2cc(-c3nc(N)ncc3F)c3cc(C#CC(C)(O)C4CC4)ncc32)C1 (stereo not drawn) [Compound 158] | 6.13 | 6.41 | 6.36 |  | 6.74 |  |  |
| CC(C)N1CC(n2cc(-c3nc(N)ncc3F)c3cc(C#CC(C)(O)C4CC4)ncc32)C1 (stereo not drawn) [Compound 159] | 6.49 | 6.74 | 6.64 |  | 6.57 |  |  |
| [2H]C([2H])([2H])C(O)(C#Cc1cc2c(-c3nc(N)ncc3F)cn(C3CN(C4CC4)C3)c2cn1)C([2H])([2H])[2H] [Compound 160] | 6.68 | 7.03 | 6.96 |  | 7.09 |  |  |
| CC(O)(C#Cc1cc2c(-c3nc(N)ncc3F)cn(C3CN(C4CC4)C3)c2cn1)CF (stereo not drawn) [Compound 161] | 6.47 | 6.96 | 6.82 |  | 7.40 |  |  |
| COCC(C)N1CC(n2cc(-c3nc(N)ncc3F)c3cc(C#CC(C)(O)C4CC4)ncc32)C1 (stereo not drawn) [Compound 162] | 6.10 | 6.46 | 6.43 |  | 6.47 |  |  |
| CC(O)(C#Cc1cc2c(-c3nc(N)ncc3F)cn(C3CCN(CCF)CC3)c2cn1)C1CC1 (stereo not drawn) [Compound 163] | 6.96 | 7.23 | 6.96 |  | 7.14 |  |  |
| CC(O)(C#Cc1cc2c(-c3ccnc(N)n3)cn(C3CCN(C4CC4)CC3)c2cn1)C1CC1 (stereo not drawn) [Compound 164] | 6.17 | 6.57 | 6.41 |  | 7.05 |  |  |
| CC(O)(C#Cc1cc2c(-c3nc(N)ncc3F)cn(C3CCN(CC4CC4)CC3)c2cn1)C1CC1 (stereo not drawn) [Compound 165] | 6.34 | 6.70 | 6.66 |  | 7.34 |  |  |
| CC(C)(O)C#Cc1cc2c(-c3nc(N)ncc3F)cn(C3CN(C4CC4)C3)c2cn1 [Compound 166] | 6.74 | 7.22 | 7.02 |  | 7.12 |  |  |
| CC(O)(C#Cc1cc2c(-c3nc(N)ncc3F)cn(C3CCN(CCC(F)(F)F)CC3)c2cn1)C1CC1 (stereo not drawn) [Compound 167] | 6.00 | 6.41 | 6.41 |  | 7.24 |  |  |
| COCCOc1cnc(N)nc1-c1cn(C(C)C)c2cnc(C#CC(C)(O)C3CC3)cc12 (stereo not drawn) [Compound 168] | 7.03 | 7.64 | 7.57 |  | 7.44 |  |  |
